Laboratory results: ChEMBL document CHEMBL1201862, “PubChem BioAssay data set” (2004)
Calls of active or inactive are those of the source.

Assays:
Nonstructural protein 1 = Nonstructural protein 1 (Influenza A virus, UniProt Q194T2); format: functional, Influenza A virus (A/California/07/2009(H1N1))
[1] = Luminescence Cell-Based Dose Retest to Confirm Inhibitors of Cancer Stem Cells. [Related pubchem assays (depositor defined):AID2717, AID2721]; format: functional; settings: Homo sapiens
[2] = molecular target: T1, Polyadenylate-binding protein 1 (Homo sapiens, UniProt P11940); test: PABP1 MLLE–PAM2 interaction inhibitors, dose response, miRNA deadenylation inhibitor project, biochemical, fluorescence polarization, Cy5-PAM2 peptide, secondary (AID 602260); format: functional; settings: read-out: IC50_Mean
T1 sequence (P11940 whole entry): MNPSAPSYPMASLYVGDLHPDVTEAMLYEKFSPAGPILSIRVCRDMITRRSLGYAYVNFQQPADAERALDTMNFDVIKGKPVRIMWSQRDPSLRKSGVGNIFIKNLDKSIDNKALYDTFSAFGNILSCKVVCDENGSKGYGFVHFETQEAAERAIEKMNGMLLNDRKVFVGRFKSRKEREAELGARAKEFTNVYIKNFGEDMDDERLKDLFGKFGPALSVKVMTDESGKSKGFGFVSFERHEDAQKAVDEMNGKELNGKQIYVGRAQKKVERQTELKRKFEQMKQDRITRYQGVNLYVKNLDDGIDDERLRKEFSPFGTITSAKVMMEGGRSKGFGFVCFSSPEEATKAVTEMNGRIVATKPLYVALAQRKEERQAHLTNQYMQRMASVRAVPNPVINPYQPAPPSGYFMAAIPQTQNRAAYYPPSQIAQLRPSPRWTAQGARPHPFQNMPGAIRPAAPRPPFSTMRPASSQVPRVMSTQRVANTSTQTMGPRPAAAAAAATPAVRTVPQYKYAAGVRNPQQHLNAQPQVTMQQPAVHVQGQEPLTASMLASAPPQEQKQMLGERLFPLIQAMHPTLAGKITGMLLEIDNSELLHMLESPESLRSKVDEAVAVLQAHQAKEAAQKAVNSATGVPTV

[3] = molecular target: T1, Polyadenylate-binding protein 1; test: PABP1 MLLE–PAM2 binding inhibitor potency, dose response, biochemical, fluorescence polarization, FITC-PAM2 peptide (AID 602259); format: functional; settings: read-out: IC50_Mean
[4] = molecular target: Induced myeloid leukemia cell differentiation protein Mcl-1 (Homo sapiens, UniProt Q07820); format: functional
Chain of Induced myeloid leukemia cell differentiation protein Mcl-1 (Q07820 whole entry): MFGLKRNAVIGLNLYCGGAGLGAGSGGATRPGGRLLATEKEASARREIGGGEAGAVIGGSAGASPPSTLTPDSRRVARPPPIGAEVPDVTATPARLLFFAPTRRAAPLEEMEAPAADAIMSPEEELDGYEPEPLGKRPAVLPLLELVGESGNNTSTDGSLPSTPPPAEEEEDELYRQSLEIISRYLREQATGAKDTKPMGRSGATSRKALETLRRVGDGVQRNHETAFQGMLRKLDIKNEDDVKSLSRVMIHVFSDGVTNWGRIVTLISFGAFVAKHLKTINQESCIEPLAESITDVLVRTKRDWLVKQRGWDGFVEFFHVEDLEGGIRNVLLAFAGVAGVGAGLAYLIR

H9c2 = test: cells; format: functional, cell-based; settings: Rattus norvegicus, H9c2, Myocardium;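 also: confirmatory concentration-response retest of ultra-high-throughput screening hits for modulation of myocardial damage; cell death induced by hydrogen peroxide oxidative stress; compound pretreatment for 60 min then peroxide exposure for 2 h; potency is for protecting the cells against peroxide damage rather than for killing them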
[5] = HEp-2 cell cytotoxicity, dose response, cytotoxicity control for RSV inhibitor project, HTS (AID 2410); format: functional; settings: human respiratory syncytial virus
[6] = test system: Streptococcus sp. 'group A'; test: growth inhibition of control SK(-) GAS strain, dose response, counter-screen for streptokinase expression inhibitor project, luminescence, kanamycin, BacTiterGlo, confirmation (AID 1900); format: functional, organism-based
Streptococcus = test: Group A Streptococcus viability loss, dose response, counter-screen for streptokinase expression inhibitor project, luminescence, BacTiterGlo (AID 1915); format: functional, organism-based;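 also: potency for reduction of bacterial viability or growth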
Streptokinase A = molecular target: T2, Streptokinase A (Streptococcus pyogenes serotype M1, UniProt P10520); test: S. pyogenes streptokinase expression inhibitors, potency, dose response, plasminogen activation absorbance, OD405 (AID 1914); format: functional, Streptococcus pyogenes M1 GAS;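 also: secreted streptokinase activity via plasminogen activation per viability signal from cell pellet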
T2 sequence (P10520 whole entry): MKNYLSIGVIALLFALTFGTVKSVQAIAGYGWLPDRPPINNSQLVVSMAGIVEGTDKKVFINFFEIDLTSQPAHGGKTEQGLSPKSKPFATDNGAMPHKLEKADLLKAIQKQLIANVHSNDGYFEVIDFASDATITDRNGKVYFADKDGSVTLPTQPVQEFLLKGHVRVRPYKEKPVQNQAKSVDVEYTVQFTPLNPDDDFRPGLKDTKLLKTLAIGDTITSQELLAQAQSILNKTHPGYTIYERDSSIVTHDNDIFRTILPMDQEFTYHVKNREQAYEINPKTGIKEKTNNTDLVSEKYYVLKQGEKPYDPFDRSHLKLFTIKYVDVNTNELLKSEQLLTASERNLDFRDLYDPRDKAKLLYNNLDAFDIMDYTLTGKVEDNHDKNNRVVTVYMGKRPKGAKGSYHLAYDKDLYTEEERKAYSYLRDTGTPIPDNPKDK

[7] = P. falciparum Dd2 growth inhibitors, dose response, SYBR Green, cherry-picked samples (AID 1159567); format: functional, cell-based
[8] = Luminescence Cell-Based Dose Response HTS to Identify Inhibitors of 5'UTR Stem-Loop Driven Prion Protein mRNA Translation in H4 Neuroglioblastoma Cells. [Related pubchem assays: 1827 (Project Summary), 1813 (Primary HTS)]; format: functional
[9] = inhibitors of firefly luciferase expression or activity, dose response, H4 neuroglioma cells, luminescence (AID 1990); format: functional, cell-based
Leucine aminopeptidase = molecular target: T3, Leucine aminopeptidase (Plasmodium falciparum 3D7, UniProt Q8IL11); test: P. falciparum M17LAP inhibitors, primary screen, biochemical, fluorogenic H-Leu-NHMec substrate, 1536-well (AID 1619); format: functional
T3 sequence (Q8IL11 whole entry): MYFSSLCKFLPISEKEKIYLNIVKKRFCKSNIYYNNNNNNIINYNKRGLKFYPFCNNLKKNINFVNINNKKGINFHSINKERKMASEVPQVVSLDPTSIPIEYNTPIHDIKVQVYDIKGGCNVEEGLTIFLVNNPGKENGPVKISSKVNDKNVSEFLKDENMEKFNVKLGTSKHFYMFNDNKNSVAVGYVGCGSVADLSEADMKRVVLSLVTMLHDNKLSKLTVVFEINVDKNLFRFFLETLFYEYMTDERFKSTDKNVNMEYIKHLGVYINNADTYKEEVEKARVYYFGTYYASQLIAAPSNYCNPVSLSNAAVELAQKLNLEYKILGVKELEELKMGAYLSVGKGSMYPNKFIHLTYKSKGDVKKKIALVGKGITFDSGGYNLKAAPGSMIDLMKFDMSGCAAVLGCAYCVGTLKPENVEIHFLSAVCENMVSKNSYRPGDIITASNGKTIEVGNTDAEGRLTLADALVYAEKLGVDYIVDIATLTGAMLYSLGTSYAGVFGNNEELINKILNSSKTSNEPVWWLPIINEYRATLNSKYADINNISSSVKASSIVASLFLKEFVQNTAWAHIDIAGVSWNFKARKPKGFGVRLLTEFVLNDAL

[10] = inhibitors of intracellular T. cruzi replication, confirmation, NIH3T3 host cells, beta-gal luminescence (AID 2044); format: functional, cell-based;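 also: intracellular parasites grown in NIH/3T3 mouse fibroblasts as host cells; luminescent beta-galactosidase reporter signal from transgenic T. cruzi replicating inside host cells; inhibitors lower the luminescence signal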
[11] = cytotoxicity toward NIH3T3 fibroblasts, dose response, counter-screen, cell-based, ATP luminescence, mouse fibroblasts (AID 2010); format: functional;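 also: cells exposed to compound for about 90 hours before reading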
[12] = molecular target: T4, Corticotropin-releasing factor receptor 2/Corticotropin-releasing factor-binding protein (Homo sapiens, UniProt P24387+Q13324); test: activators of CRF receptor 2 with binding protein – uHTS hits, confirmation (AID 602473); format: functional; settings: read-out: EC50_Mean
T4 sequence (Q13324 whole entry): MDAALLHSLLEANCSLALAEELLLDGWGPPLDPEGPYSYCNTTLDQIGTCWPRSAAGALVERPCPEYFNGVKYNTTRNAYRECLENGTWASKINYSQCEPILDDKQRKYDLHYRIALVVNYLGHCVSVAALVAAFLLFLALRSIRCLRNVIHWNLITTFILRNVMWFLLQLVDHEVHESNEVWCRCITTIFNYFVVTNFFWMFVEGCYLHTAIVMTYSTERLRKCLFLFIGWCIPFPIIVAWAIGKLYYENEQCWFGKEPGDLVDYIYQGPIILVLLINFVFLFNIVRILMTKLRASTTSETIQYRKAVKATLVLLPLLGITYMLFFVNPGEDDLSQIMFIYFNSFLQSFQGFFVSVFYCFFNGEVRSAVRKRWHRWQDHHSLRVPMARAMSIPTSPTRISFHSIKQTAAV
T4 sequence (P24387 whole entry): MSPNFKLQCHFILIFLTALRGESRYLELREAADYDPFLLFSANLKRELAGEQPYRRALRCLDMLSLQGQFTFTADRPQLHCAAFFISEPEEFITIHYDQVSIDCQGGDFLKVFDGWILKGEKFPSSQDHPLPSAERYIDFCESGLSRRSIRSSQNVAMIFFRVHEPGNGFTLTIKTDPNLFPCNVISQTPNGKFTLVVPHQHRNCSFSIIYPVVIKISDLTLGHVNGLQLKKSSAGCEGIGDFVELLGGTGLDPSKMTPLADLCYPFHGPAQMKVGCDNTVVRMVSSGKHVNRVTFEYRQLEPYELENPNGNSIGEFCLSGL

[13] = molecular target: T4, Corticotropin-releasing factor receptor 2/Corticotropin-releasing factor-binding protein; test: Dose Response confirmation of uHTS hits for small molecule antagonists of the CRF-binding protein and CRF-R2 receptor complex.; format: functional; settings: read-out: IC50_Mean
[14] = inhibitors of clade B AD8 Env fusion, dose response, cell-based, cherry-pick (AID 652062); format: functional;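 also: luciferase signal from cell-cell fusion driven by HIV-1 clade B AD8 Env; potency is for inhibitors of fusion seen as a drop in luminescence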
[15] = inhibitors of HIV Env-driven cell fusion, dose response, cherry-pick (AID 652057); format: functional, cell-based

Chain of Nonstructural protein 1 (Q194T2 whole entry): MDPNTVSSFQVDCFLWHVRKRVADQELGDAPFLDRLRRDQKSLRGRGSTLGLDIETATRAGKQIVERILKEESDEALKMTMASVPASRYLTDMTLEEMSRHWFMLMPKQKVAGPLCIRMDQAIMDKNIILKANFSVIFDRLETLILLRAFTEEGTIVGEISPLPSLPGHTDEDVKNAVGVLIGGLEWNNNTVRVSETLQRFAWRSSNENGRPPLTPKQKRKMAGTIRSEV

CN1C(=O)/C(=C/c2cc(N=Nc3ccccc3)ccc2O)SC1=S
IC50 (Nonstructural protein 1): 14.5 µM (active) | AC50 [1]: 0.644 µM (active)

COc1cc(OC)c2ccc(=O)oc2c1C(CCN1CCN(c2ccccc2)CC1)c1ccc(N(C)C)cc1 (centres undefined)
IC50 (Nonstructural protein 1): 32.5 µM (active)

CC1CCN(c2ccccc2NC(=S)NC(=O)c2ccco2)CC1
IC50 [2]: > 66 µM (inactive) | IC50 [3]: > 66 µM (inactive)

COC(=O)c1ccccc1NC(=S)NC(=O)c1ccc2c(c1)OCO2
IC50 [2]: > 66 µM (inactive) | IC50 [3]: > 66 µM (inactive)

O=C(O)CCCCCN1C(=O)/C(=C\c2ccc(-c3ccc(Cl)cc3)o2)SC1=S
IC50 [4]: 1.27 µM (active)

CCCN(CC(=O)Nc1ccc(F)c(F)c1F)C(=O)CCc1nc(O)c2ccccc2n1
IC50 (H9c2): 9.51 µM (active)

O=C(Nc1nnc(C2CC2)s1)c1cc(-c2ccccc2)nn1-c1ccccc1
CC50 [5]: 13.1 µM (active) | IC50 (H9c2): 12.3 µM (active) | EC50 [6]: 10.1 µM (active) | EC50 (Streptococcus): 20.8 µM (active) | EC50 (Streptokinase A): 8.32 µM (active)

CCCCCc1ccc(C(=O)CCCC)c(S)n1
IC50 [2]: > 66 µM (inactive) | IC50 [3]: > 66 µM (inactive)

O=C(CSc1nnc(-c2cccnc2)n1Cc1ccco1)c1ccccc1
IC50 (H9c2): 32.4 µM (inactive)

COc1ccc(C(=O)COC(=O)C(CCCCN2C(=O)C3C4C=CC(C4)C3C2=O)N2C(=O)C3C4C=CC(C4)C3C2=O)cc1 (centres undefined)
IC50 (H9c2): > 79 µM (inactive)

O=C1CCCC(=O)C1=NNc1ccc2ncsc2c1
IC50 [2]: > 66 µM (inactive) | IC50 [3]: > 66 µM (inactive)

C[C@@H]1CN([C@H](C)CO)C(=O)c2cccc(NC(=O)Nc3cccc4ccccc34)c2O[C@H]1CN(C)C(=O)NC1CCCCC1
AC50 [7]: 4.98 µM (active)

COC(=O)c1sc(=S)n(-c2cc(F)ccc2F)c1N
IC50 [2]: > 66 µM (inactive) | IC50 [3]: > 66 µM (inactive)

O=C(CSc1ccc(-c2ccccn2)nn1)NCc1ccc(Cl)cc1
IC50 (Nonstructural protein 1): 41.9 µM (active)

COc1ccc(NC(=O)c2cc3c(=O)n(C)c4ccccc4c3n2C)cc1OC
IC50 (H9c2): > 79 µM (inactive)

CCn1cc(C(=O)N2CCN(c3ccc([N+](=O)[O-])cc3)CC2)c(=O)c2ccc(C)nc21
EC50 [8]: > 120 µM (not active) | EC50 [9]: 21.6 µM (active)

CCCCn1nc(NC(=O)c2cccs2)c2cc3ccccc3nc21
CC50 [5]: 25.5 µM (active) | IC50 (H9c2): > 79 µM (inactive)

COc1cccc(Nc2ncnc3[nH]cnc23)c1
IC50 (Leucine aminopeptidase): 95.1 µM (active)

Cc1cc(C(=O)COC(=O)c2ccc[nH]c2=O)c(C)n1C1CC1
IC50 (Leucine aminopeptidase): 13.3 µM (active)

O=C(c1ccc2[nH]c3c(c2c1)CCCC3)N1CCN(c2ccc(F)cc2)CC1
IC50 (Nonstructural protein 1): > 100 µM (active)

O=C(Cn1nnc2ccccc2c1=O)Nc1ccc2c(c1)CCC2
IC50 (Leucine aminopeptidase): 1.51 µM (active)

Oc1nc2cccc(F)c2n2cccc12
CC50 [5]: 30 µM (active) | IC50 (H9c2): > 79 µM (inactive)

Cc1ccc(-n2cnn(-c3ccc([N+](=O)[O-])cc3[N+](=O)[O-])c2=O)cc1
IC50 (Nonstructural protein 1): > 100 µM (active) | EC50 [10]: 1.54 µM (active) | EC50 [11]: > 60 µM (not active)

Cc1ccc(CN(C)C(=O)CCc2c[nH]c3ccccc23)o1
EC50 [12]: > 53 µM (inactive) | IC50 [13]: > 47.1 µM (inactive)

COC(=O)C1=C(C)N(C)C(C)=C(C(=O)OC)C1c1ccc(F)c(Br)c1
EC50 [12]: > 53 µM (inactive) | IC50 [13]: > 47.1 µM (inactive)

COc1ccc(N2CCN(C(=O)CCC(=O)N3CCOc4ccc(Cl)cc43)CC2)cc1
IC50 (Nonstructural protein 1): > 100 µM (active)

Cc1ccc(CCNC(=O)C2CCCN(S(=O)(=O)N3CC(C)CC(C)C3)C2)cc1 (centres undefined)
EC50 [12]: > 53 µM (inactive) | IC50 [13]: > 47.1 µM (inactive)

Cc1cc2nc(-c3ccc(SCC(=O)N4CCN(C(=O)c5ccco5)CC4)nc3)[nH]c2cc1C
IC50 [4]: 3.63 µM (active)

O=C(O)c1ccc(N/N=C/C2=C(N3CCOCC3)C(=C\c3ccccc3)/CC2)cc1
IC50 [4]: 4.44 µM (active)

O=C1CC(c2ccccc2)CN1S(=O)(=O)c1ccccc1 (centres undefined)
EC50 [12]: > 53 µM (inactive) | IC50 [13]: > 47.1 µM (inactive)

CCOc1ccc(NC(=O)CSc2nnnn2CC(=O)O)cc1
IC50 (Leucine aminopeptidase): 6.69 µM (active)

CC(C)Oc1ccc(C(=O)NC2(C(F)(F)F)N=C3SCCN3C2=O)cc1 (centres undefined)
IC50 [2]: > 66 µM (inactive) | IC50 [3]: > 66 µM (inactive)

C/C(=N\NC(=O)c1ccccc1-n1cccc1)c1ccccn1
IC50 (H9c2): 38.8 µM (inactive)

C[C@H](CO)N1C[C@H](C)[C@H](CN(C)S(=O)(=O)c2cccs2)Oc2ccc(NC(=O)Cc3cn(C)c4ccccc34)cc2CC1=O
AC50 [14]: 12.5 µM (active) | AC50 [15]: 0.883 µM (active)

CCOC(=O)N1CCN(C2=C(NS(=O)(=O)c3ccc(C)cc3)C(=O)c3ccccc3C2=O)CC1
IC50 (Nonstructural protein 1): 21.5 µM (active)

CN(C)c1ccc2c(c1)[C@@H]1C[C@@H](CC(=O)NCc3cc(F)ccc3F)O[C@@H](CO)[C@@H]1O2
AC50 [7]: 13.3 µM (active)

COC(=O)/C(=C(O)\C=C\c1ccccc1[N+](=O)[O-])c1nc2ccccc2[nH]1
IC50 (H9c2): > 79 µM (inactive)

O=C(c1ccc(Cl)s1)N1CCN(c2nc3ccccc3s2)CC1
AC50 [14]: 11.9 µM (active) | AC50 [15]: 55.7 µM (active)

C[C@@H]1CN([C@@H](C)CO)C(=O)Cc2cc(NC(=O)NC3CCCCC3)ccc2O[C@H]1CN(C)C(=O)Nc1cccc2ccccc12
AC50 [7]: 5.11 µM (active)

O=C(NC(=S)NNS(=O)(=O)c1ccccc1)c1ccccc1[N+](=O)[O-]
IC50 [2]: > 66 µM (inactive) | IC50 (Leucine aminopeptidase): 29.9 µM (active) | IC50 [3]: > 66 µM (inactive)
